Measurements as given in article PMC7419507, “In vitro Cas9-assisted editing of modular polyketide synthase genes to produce desired natural product derivatives” (Nature Communications, 2020).
Where “and” joins values, the source holds several entries; their conditions need not be identical. Equal entries are not always repeated.

Experiments:
Type in all cases: cell-based
[1] = Cytotoxicity assay (CellTiter-Glo, 72 h), MESO-1; settings: human, MESO-1 malignant pleural mesothelioma cells, conc 50 uM; raw replicate data; read-out: MESO1 viability (%)
Experimental: (§1) Jurkat cells were cultured in RPMI1640 medium supplemented with 10% foetal bovine serum, penicillin (50 U/ml), streptomycin (50 μg/ml), and Glutamax. SKOV-3 cells were cultured in DMEM medium supplemented with 10% fetal bovine serum, penicillin (50 U/ml), and streptomycin (50 μg/ml). MESO-1 cells were cultured in RPMI1640 medium supplemented with 10% fetal bovine serum, penicillin (50 U/ml), and streptomycin (50 μg/ml). All cell lines were seeded in a 384-well plate at a density of 1000 cells/well in 20 μl of media and incubated at 37 °C in a humidified incubator with 5% CO2. After 4 h, 2-fold dilution samples resolved in DMSO were added to the cell culture at the concentration of 0.5% (0.1 μl) and incubated for 72 h. Cell viabilities were measured using a CellTiter-Glo luminescent cell viability assay and EnVision multilabel plate reader.

[2] = test system: malignant pleural mesothelioma MESO-1 cells; experiment: Cytotoxicity assay (CellTiter-Glo, 72 h), MESO-1; settings: raw replicate data
Experimental: as §1

[3] = Cytotoxicity assay (CellTiter-Glo, 72 h), Jurkat; settings: human, Jurkat cells (T lymphoma)
Experimental: as §1

[4] = test system: T lymphoma Jurkat cells; experiment: Cytotoxicity assay (CellTiter-Glo, 72 h), Jurkat; settings: raw data (replicates)
Experimental: as §1

CO[C@H]1C[C@@H]2CC[C@@H](C)[C@@](O)(O2)C(=O)C(=O)N2CCCC[C@H]2C(=O)O[C@H]([C@H](C)C[C@@H]2CC[C@@H](O)[C@H](OC)C2)CC(=O)[C@H](C)/C=C(\C)[C@@H](O)[C@@H](OC)C(=O)[C@H](C)C[C@H](C)/C=C/C=C/C=C/1C [Compound 1, rapamycin, reference compound]
viability at 72 h, 50 uM [1]: 1.1% | MESO1 viability (%) ([2]; conc 9.53674e-5 uM): 78.2% and 78.1% | MESO1 viability (%) ([2]; conc 0.000190735 uM): 77.7% and 77.2% | MESO1 viability (%) ([2]; conc 0.00038147 uM): 77.9% and 86.0% | MESO1 viability (%) ([2]; conc 0.000762939 uM): 70.2% and 70.0% | MESO1 viability (%) ([2]; conc 0.00152588 uM): 112.8% and 111.2% | MESO1 viability (%) ([2]; conc 0.00305176 uM): 76.5% | MESO1 viability (%) ([2]; conc 0.00610352 uM): 75.4% and 78.7% | MESO1 viability (%) ([2]; conc 0.012207 uM): 72.8% and 76.2% | MESO1 viability (%) ([2]; conc 0.0244141 uM): 77.3% | MESO1 viability (%) ([2]; conc 0.0488281 uM): 71.0% and 73.9% | MESO1 viability (%) ([2]; conc 0.0976562 uM): 74.5% and 75.3% | MESO1 viability (%) ([2]; conc 0.195312 uM): 73.7% and 71.3% | MESO1 viability (%) ([2]; conc 0.390625 uM): 76.1% | MESO1 viability (%) ([2]; conc 0.78125 uM): 74.4% and 74.1% | MESO1 viability (%) ([2]; conc 1.5625 uM): 76.3% | MESO1 viability (%) ([2]; conc 3.125 uM): 70.7% and 70.8% | MESO1 viability (%) ([2]; conc 6.25 uM): 70.6% and 74.9% | MESO1 viability (%) ([2]; conc 12.5 uM): 61.9% and 67.0% | MESO1 viability (%) ([2]; conc 25 uM): 64.2% and 64.1% | MESO1 viability (%) ([2]; conc 50 uM): 0.7% and 0.8% | viability at 72 h ([3]; 72 h, read-out: Plateau level of cell viability in the dose-response curve): ~25% | viability at 72 h, 9.53674e-05 uM ([3]; conc 9.53674e-5 uM, raw data (replicates)): 51.5% | viability at 72 h, 0.000190735 uM ([3]; conc 0.000190735 uM, raw data (replicates)): 40.1% | viability at 72 h, 0.00038147 uM ([3]; conc 0.00038147 uM, raw data (replicates)): 41% | viability at 72 h, 0.000762939 uM ([3]; conc 0.000762939 uM, raw data (replicates)): 32.5% | viability at 72 h, 0.00152588 uM ([3]; conc 0.00152588 uM, raw data (replicates)): 100% | viability at 72 h, 0.00305176 uM ([3]; conc 0.00305176 uM, raw data (replicates)): 41.9% | viability at 72 h, 0.00610352 uM ([3]; conc 0.00610352 uM, raw data (replicates)): 30.7% | viability at 72 h, 0.012207 uM ([3]; conc 0.012207 uM, raw data (replicates)): 28.3% | viability at 72 h, 0.0244141 uM ([3]; conc 0.0244141 uM, raw data (replicates)): 25.3% | viability at 72 h, 0.0488281 uM ([3]; conc 0.0488281 uM, raw data (replicates)): 24.5% | viability at 72 h, 0.0976562 uM ([3]; conc 0.0976562 uM, raw data (replicates)): 24% | viability at 72 h, 0.195312 uM ([3]; conc 0.195312 uM, raw data (replicates)): 24.4% | viability at 72 h, 0.390625 uM ([3]; conc 0.390625 uM, raw data (replicates)): 23.8% | viability at 72 h, 0.78125 uM ([3]; conc 0.78125 uM, raw data (replicates)): 23.7% | viability at 72 h, 1.5625 uM ([3]; conc 1.5625 uM, raw data (replicates)): 23.8% | viability at 72 h, 3.125 uM ([3]; conc 3.125 uM, raw data (replicates)): 23.9% | viability at 72 h, 6.25 uM ([3]; conc 6.25 uM, raw data (replicates)): 20.6% | viability at 72 h, 12.5 uM ([3]; conc 12.5 uM, raw data (replicates)): 18.3% | viability at 72 h, 25 uM ([3]; conc 25 uM, raw data (replicates)): 7.7% | Jurkat viability (%) ([4]; conc 9.53674e-5 uM): 52.8% and 57.4% | Jurkat viability (%) ([4]; conc 0.000190735 uM): 35.2% and 40.4% | Jurkat viability (%) ([4]; conc 0.00038147 uM): 39.9% and 44.6% | Jurkat viability (%) ([4]; conc 0.000762939 uM): 31.7% | Jurkat viability (%) ([4]; conc 0.00152588 uM): 102.7% and 105.0% | Jurkat viability (%) ([4]; conc 0.00305176 uM): 37.4% | Jurkat viability (%) ([4]; conc 0.00610352 uM): 31.8% and 34.7% | Jurkat viability (%) ([4]; conc 0.012207 uM): 28.7% and 28.4% | Jurkat viability (%) ([4]; conc 0.0244141 uM): 27.2% and 27.1% | Jurkat viability (%) ([4]; conc 0.0488281 uM): 23.4% | Jurkat viability (%) ([4]; conc 0.0976562 uM): 26.6% and 24.6% | Jurkat viability (%) ([4]; conc 0.195312 uM): 24.1% and 25.5% | Jurkat viability (%) ([4]; conc 0.390625 uM): 24.1% and 24.6% | Jurkat viability (%) ([4]; conc 0.78125 uM): 24.2% | Jurkat viability (%) ([4]; conc 1.5625 uM): 22.7% and 24.6% | Jurkat viability (%) ([4]; conc 3.125 uM): 21.8% and 23.2% | Jurkat viability (%) ([4]; conc 6.25 uM): 22.0% and 21.9% | Jurkat viability (%) ([4]; conc 12.5 uM): 19.2% | Jurkat viability (%) ([4]; conc 25 uM): 6.4% and 6.3% | Jurkat viability (%) ([4]; conc 50 uM): 0.5% and 0.178% and 0.2%
